The source of these data is patent US6090834A, “Substituted oxazoles for the treatment of inflammation” (G.D. Searle & Co., priority 1998, dated 2000).

One test concerns COX-2. The test can be described thus: COX-2 activity in vitro (PGE2 formed, ELISA). In kind it is biochemical, human or murine. Conditions: recombinant enzyme, arachidonic acid 10 μM, pH 8.0; read-out: COX II ID50. Here is the method: (§1) Evaluation of COX I and COX II activity in vitro
(§2) The COX-2 inhibition activity of the compounds of this invention illustrated in the Examples was determined by the following methods. a. Preparation of recombinant COX baculoviruses
(§3) Recombinant COX-1 and COX-2 were prepared as described by Gierse et al, [J. Biochem., 305, 479-84 (1995)]. A 2.0 kb fragment containing the coding region of either human or murine COX-1 or human or murine COX-2 was cloned into a BamH1 site of the baculovirus transfer vector pVL1393 (Invitrogen) to generate the baculovirus transfer vectors for COX-1 and COX-2 in a manner similar to the method of D. R. O'Reilly et al (Baculovirus Expression Vectors: A Laboratory Manual (1992)). Recombinant baculoviruses were isolated by transfecting 4 μg of baculovirus transfer vector DNA into SF9 insect cells (2×10^8) along with 200 ng of linearized baculovirus plasmid DNA by the calcium phosphate method. See M. D. Summers and G. E. Smith, A Manual of Methods for Baculovirus vectors and Insect Cell Culture Procedures, Texas Agric. Exp. Station Bull. 1555 (1987). Recombinant viruses were purified by three rounds of plaque purification and high titer (10^7 -10^8 pfu/ml) stocks of virus were prepared. For large scale production, SF9 insect cells were infected in 10 liter fermentors (0.5×10^6 /ml) with the recombinant baculovirus stock such that the multiplicity of infection was 0.1. After 72 hours the cells were centrifuged and the cell pellet homogenized in Tris/Sucrose (50 mM: 25%, pH 8.0) containing 1% 3-[(3-cholamidopropyl)dimethylammonio]-1-propanesulfonate (CHAPS). The homogenate was centrifuged at 10,000×G for 30 minutes, and the resultant supernatant was stored at -80° C. before being assayed for COX activity. […]
(§4) b. Assay for COX-1 and COX-2 activity
(§5) COX activity was assayed as PGE2 formed/μg protein/time using an ELISA to detect the prostaglandin released. CHAPS-solubilized insect cell membranes containing the appropriate COX enzyme were incubated in a potassium phosphate buffer (50 mM, pH 8.0) containing epinephrine, phenol, and heme with the addition of arachidonic acid (10 μM). Compounds were pre-incubated with the enzyme for 10-20 minutes prior to the addition of arachidonic acid. Any reaction between the arachidonic acid and the enzyme was stopped after ten minutes at 37° C./room temperature by transferring 40 μl of reaction mix into 160 μl ELISA buffer and 25 μM indomethacin. The PGE2 formed was measured by standard ELISA technology (Cayman Chemical).

Another test concerns COX-1. The experiment in a line: COX-1 activity in vitro (PGE2 formed, ELISA). The settings on record: recombinant enzyme, arachidonic acid 10 μM, pH 8.0; read-out: COX-1 ID50. In kind it is biochemical, human or murine. Here is the method: as §1, §2, §3, §4, §5

pIC50: −log10 of the molar value. Bounds are passed on as bounds.

In the case of “4-[2-(methylsulfonyl)-4-phenyl-5-oxazolyl]benzenesulfonamide [Example 53]”, in the test with COX-2, the pIC50 is 6.30.

With “4-[2-methylsulfinyl)-4-phenyl-5-oxazolyl]benzenesulfonamide [Example 52]”, the pIC50 in the test on COX-1 was 4.46.

Consider `Cc1nc(-c2ccc(S(C)(=O)=O)cc2)c(-c2ccc(F)cc2)o1` [Example 14, 5-(4-Fluorophenyl)-2-methyl-4-[4-(methylsulfonyl)phenyl]oxazole], for which the figures for the pIC50 with COX-1 and with COX-2 were under 4.52 and under 5.00, respectively.

Take `COC(=O)CCc1nc(-c2ccc(S(C)(=O)=O)cc2)c(-c2ccc(F)cc2)o1` [Example 15, Methyl 3-[5-(4-fluorophenyl)-4-[4-(methylsulfonyl)phenyl]]-2-oxazolepropanoate]: the pIC50 is under 4.52 in the test with COX-1 and 6.70 in the test on COX-2.

On to `CS(=O)(=O)c1ccc(-c2oc(-c3ccccc3)nc2C2CCCCC2)cc1` [Example 25, 4-(cyclohexyl)-5-[4-(methylsulfonyl)phenyl]-2-phenyloxazole], for which the pIC50 with COX-1 is under 5.00; in the test with COX-2 it was 6.30.

As for `CS(=O)(=O)c1ccc(-c2oc(CCC3CCCCC3)nc2-c2ccc(F)cc2)cc1` [Example 32, 2-(2-cyclohexylethyl)-4-(4-fluorophenyl)-5-[4-(methylsulfonyl)phenyl]oxazole], the pIC50 is 4.80 in the test with COX-1 and over 7.00 in the test with COX-2.

Take `CCOC(=O)C(Cc1ccccc1)c1nc(-c2ccc(F)cc2)c(-c2ccc(S(C)(=O)=O)cc2)o1` (stereo not shown) [Example 33]: the pIC50 in the test on COX-1 was 5.51; in the test with COX-2 it was 7.30.

`CCOC(=O)Cc1nc(-c2ccc(S(N)(=O)=O)cc2)c(-c2ccc(OC)c(F)c2)o1` [Example 34, ethyl [4-(4-aminosulfonylphenyl)-5-(3-fluoro-4-methoxyphenyl)]-2-oxazoleacetate]: the values for the pIC50 in the test with COX-1 and with COX-2 were 6.70 and over 7.00, respectively. For `NS(=O)(=O)c1ccc(-c2oc(CC(=O)O)nc2-c2ccc(Cl)cc2)cc1` [Example 36, [5-(4-aminosulfonylphenyl)-4-(4-chlorophenyl)]-2-oxazoleacetic acid] the same measures were 4.61 and 5.85. Turning to `NS(=O)(=O)c1ccc(-c2nc(CC(=O)O)oc2-c2ccc(Cl)cc2)cc1` [Example 37, [4-(4-aminosulfonylphenyl)-5-(4-chlorophenyl)]-2-oxazoleacetic acid], the pIC50 is 5.47 in the test with COX-1 and 5.15 in the test with COX-2. Taken in the same sequence, the figures for `NS(=O)(=O)c1ccc(-c2oc(CC(=O)O)nc2-c2ccccc2)cc1` [Example 38, [5-(4-aminosulfonylphenyl)-4-phenyl]-2-oxazoleaceticacid] were 4.14 and over 7.00. Regarding `NS(=O)(=O)c1ccc(-c2nc(CC(=O)O)oc2-c2ccc(F)c(Cl)c2)cc1` [Example 39, [4-(4-aminosulfonylphenyl)-5-(3-chloro-4-fluorophenyl)]-2-oxazoleacetic acid], the pIC50 in the test with COX-1 is under 4.00; in the test with COX-2 it was 4.10. For `NS(=O)(=O)c1ccc(-c2nc(CC(=O)O)oc2-c2ccc(Cl)c(Cl)c2)cc1` [Example 40, [4-(4-aminosulfonylphenyl)-5-(3.4-dichlorophenyl)]-2-oxazoleacetic acid] the same measures were 4.59 and over 7.00. Taken in the same sequence, the figures for `NS(=O)(=O)c1ccc(-c2nc(CC(=O)O)oc2-c2ccc(F)c(F)c2)cc1` [Example 41] were under 4.00 and 4.22. As to `NS(=O)(=O)c1ccc(-c2nc(C(F)(F)F)oc2-c2ccc(F)c(F)c2)cc1` [Example 42, 4-[5-(3.4-difluorophenyl)-2-trifluoromethyl-4-oxazolyl]benzenesulfonamide], the results for the pIC50 in the test on COX-1 and with COX-2 were 4.94 and over 7.00, respectively.

As to `NS(=O)(=O)c1ccc(-c2oc(CCC(=O)O)nc2-c2ccccc2)cc1` [Example 43, [5-(4-aminosulfonylphenyl)-4-phenyl]-2-oxazolepropionic acid], the pIC50 was 5.64 in the test on COX-1 and 5.51 in the test on COX-2. Take `NS(=O)(=O)c1ccc(-c2ocnc2-c2ccccc2)cc1` [Example 44, 4-[4-phenyl-5-oxazolyl]benzenesulfonamide]: the pIC50 with COX-1 was under 4.00; with COX-2 it was 4.10.

Regarding `NS(=O)(=O)c1ccc(-c2oc(Cl)nc2-c2ccccc2)cc1` [Example 45, 4-[2-chloro-4-phenyl-5-oxazolyl]benzenesulfonamide], the pIC50 is 5.19 in the test on COX-1 and over 7.00 in the test with COX-2. Taken in the same sequence, the figures for `NS(=O)(=O)c1ccc(-c2oc(S)nc2-c2ccccc2)cc1` [Example 46, 4-[2-mercapto-4-phenyl-5-oxazolyl]benzenesulfonamide] were 5.77 and 6.30. As to `NS(=O)(=O)c1ccc(-c2oc(Oc3cccc(Cl)c3)nc2-c2ccccc2)cc1` [Example 47], the pIC50 in the test on COX-1 was 6.00; in the test on COX-2, over 7.00. Taken in the same sequence, the figures for `NS(=O)(=O)c1ccc(-c2oc(SCC(=O)O)nc2-c2ccccc2)cc1` [Example 48, 5-(4-aminosulfonylphenyl)-4-phenyl-2-oxazolemercaptoacetic acid] were 6.52 and 5.68.

Take `NS(=O)(=O)c1ccc(-c2oc(OCC(F)(F)F)nc2-c2ccccc2)cc1` [Example 49]: the pIC50 is 5.39 with COX-1 and over 7.00 with COX-2. Taken in the same sequence, the figures for `CSc1nc(-c2ccccc2)c(-c2ccc(S(N)(=O)=O)cc2)o1` [Example 50, 4-[2-Methylthio-4-phenyl-5-oxazolyl]benzenesulfonamide] were 5.13 and over 7.00. For `Cc1nc(-c2ccccc2)c(-c2ccc(S(N)(=O)=O)cc2)o1` [Example 51, 4-[2-methyl-4-phenyl-5-oxazolyl]benzenesulfonamide], the values for the pIC50 with COX-1 and in the test on COX-2 were 4.85 and over 7.00, respectively. As to `NS(=O)(=O)c1ccc(-c2oc(Oc3c(F)c(F)c(F)c(F)c3F)nc2-c2ccccc2)cc1` [Example 54, 4-[2-(2,3,4,5,6-pentafluorophenoxy)-4-phenyl-5-oxazolyl]benzenesulfonamide], the pIC50 is 5.52 in the test with COX-1 and over 7.00 in the test on COX-2.

With `CCOC(=O)c1ccccc1Oc1nc(-c2ccccc2)c(-c2ccc(S(N)(=O)=O)cc2)o1` [Example 56, ethyl 2-[[5-(4-aminosulfonylphenyl)-4-phenyl-2-oxazolyl]oxy]benzoate], the pIC50 in the test on COX-1 is 5.35; in the test with COX-2, over 7.00.

For `CCOC(=O)c1cccc(Oc2nc(-c3ccccc3)c(-c3ccc(S(N)(=O)=O)cc3)o2)c1` [Example 57, ethyl 3-[[5-(4-aminosulfonylphenyl)-4-phenyl-2-oxazolyl]oxy]benzoate], the pIC50 with COX-1 is 5.49; with COX-2 it was over 7.00. As for `CN(C)c1nc(-c2ccccc2)c(-c2ccc(S(N)(=O)=O)cc2)o1` [Example 58, 4-[2-(N,N-dimethylamino)-4-phenyl-5-oxazolyl]benzenesulfonamide], the pIC50 in the test with COX-1 is 4.51; with COX-2 it was over 7.00. For `NS(=O)(=O)c1ccc(-c2nc(C(F)(F)F)oc2-c2ccc(Cl)cc2)cc1` [Example 59, 4-[5-(4-chlorophenyl)-2-trifluoromethyl-4-oxazolyl]benzenesulfonamide], the pIC50 with COX-1 is 6.40; with COX-2 it was over 7.00. For `NS(=O)(=O)c1ccc(-c2oc(C(F)(F)F)nc2-c2ccccc2)cc1` [Example 64, 4-[4-phenyl-2-trifluoromethyl-5-oxazolyl]benzenesulfonamide] the same measures were 5.96 and over 7.00. As to `CN(C)c1ccc(-c2nc(C(F)(F)F)oc2-c2ccc(S(N)(=O)=O)cc2)cc1` [Example 65, 4-[4-Dimethylaminophenyl-2-trifluoromethyl-5-oxazolyl]benzenesulfonamide], the pIC50 in the test with COX-1 and in the test on COX-2 was over 7.00 throughout. As for `COc1ccc(-c2oc(CC(=O)O)nc2-c2ccc(S(N)(=O)=O)cc2)cc1F` [Example 66, [4-(4-aminosulfonylphenyl)-5-(3-fluoro-4-methoxyphenyl)]-2-oxazoleacetic acid], the pIC50 with COX-1 is 4.68; in the test on COX-2, 4.89. For `NS(=O)(=O)c1ccc(-c2nc(C(Br)C(=O)O)oc2-c2ccc(Cl)cc2)cc1` (stereo not shown) [Example 67] the same measures were 4.48 and 6.10.
